Results published in BigSolDB 2.1.

CC(O)(P(=O)(O)O)P(=O)(O)O.O
solubility (mole fraction)
Conditions | 293.15 K | 298.15 K | 303.15 K | 308.15 K | 313.15 K | 318.15 K | 323.15 K | 328.15 K
in acetic acid | 0.00181 | 0.0019 | 0.00196 | 0.002 | 0.002 | 0.00214 | 0.00225 | 0.00224
in water | 0.174 | 0.182 | 0.19 | 0.198 | 0.207 | 0.215 | 0.225 | 0.235
